SMILES strings stand for the structures.

In this test the target is T1, human DPP-IV (Homo sapiens, UniProt P27487).
T1 construct: Human DPP-IV consisting of amino acids 39 to 766 followed by a C-terminal Streptavidin-tag; Streptavidin-tag (C); made in house
T1 sequence (P27487 39-766): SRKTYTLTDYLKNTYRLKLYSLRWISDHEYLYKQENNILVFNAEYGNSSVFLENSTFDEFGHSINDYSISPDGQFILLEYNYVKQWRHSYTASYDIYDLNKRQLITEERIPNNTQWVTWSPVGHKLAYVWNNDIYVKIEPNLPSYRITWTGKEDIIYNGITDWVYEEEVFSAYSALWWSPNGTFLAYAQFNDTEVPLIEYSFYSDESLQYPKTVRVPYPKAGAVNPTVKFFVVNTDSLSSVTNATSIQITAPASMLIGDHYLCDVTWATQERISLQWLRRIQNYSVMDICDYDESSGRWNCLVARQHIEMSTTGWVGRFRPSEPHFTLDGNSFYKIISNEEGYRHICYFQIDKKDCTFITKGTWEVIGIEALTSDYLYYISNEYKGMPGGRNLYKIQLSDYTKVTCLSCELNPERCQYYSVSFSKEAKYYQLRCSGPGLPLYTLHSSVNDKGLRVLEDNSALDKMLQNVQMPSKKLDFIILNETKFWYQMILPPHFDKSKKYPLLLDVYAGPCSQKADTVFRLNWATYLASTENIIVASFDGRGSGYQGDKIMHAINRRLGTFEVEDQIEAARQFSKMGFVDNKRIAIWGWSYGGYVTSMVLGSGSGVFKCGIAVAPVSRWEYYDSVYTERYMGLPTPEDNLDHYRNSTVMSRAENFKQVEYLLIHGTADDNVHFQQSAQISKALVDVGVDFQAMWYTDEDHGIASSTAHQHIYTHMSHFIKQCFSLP
Description: Activity assay: inhibitory activity to human DPP-IV, fluorogenic substrate H-Gly-Pro-AMC. The test is classed as biochemical. As to conditions: H-Gly-Pro-AMC 10 μM, room temperature, monitored for 1 hour. The method, then:
Various Example compounds were tested for their inhibitory activity to human DPP-IV.
Human DPP-IV consisting of amino acids 39 to 766 followed by a C-terminal Streptavidin-tag was expressed using the baculovirus system and purified to >80% purity. The enzyme was stored in 25 mM Tris buffer, pH 9.0, containing 300 mM NaCl at −80° C.
The fluorogenic substrates H-Gly-Pro-AMC was purchased from Bachem AG (Bubendorf, Switzerland). The substrate was kept as a 5 mM stock solution in DMSO at −20° C. All other chemicals were purchased from Sigma (Buchs, Switzerland).
The assay buffer for the DPP-IV reaction was 25 mM Tris/HCl, pH 7.5, containing 140 mM NaCl, 10 mM KCl and 0.05% (w/v) CHAPS.
The test compounds were dissolved in 90% DMSO/10% H2O (v/v). Serial dilutions of the compounds from 3 mM to 0.03 μM in 90% DMSO/10% H2O (v/v) followed by a 1:33.3 dilution in assay buffer was done in 96-well polypropylene plates using a CyBio Dilus 8-channel pipettor (CyBio AG, Jena, Germany) with tip change after each pipetting step. The compound solutions as well as the substrate and the enzyme solutions were transferred to the assay plates (384-well black Cliniplate; cat. no. 95040020 Labsystems Oy, Finland) by means of a CyBi-Well 96-channel pipettor (CyBio AG, Jena, Germany).
Enzyme kinetics were measured by mixing 10 μl of a 3-fold concentrated substrate solution in assay buffer (final substrate concentration was 10 μM) with 10 μl of the corresponding compound solution. The reactions were initiated by addition of 10 μl of a 3-fold concentrated solution of the enzyme in assay buffer. Final enzyme (active site) concentrations in the assay was […] for DPP-IV. Fluorescence product (AMC) formation was monitored for 1 hour at room temperature at 35 second intervals by measuring the fluorescence emission at 500 nm using an exitation wavelength of 350 nm in a TECAN Ultra fluorescence reader (TECAN, Maennedorf, Switzerland). The fluorescence in each well was excited by one flash per measurement. The Origin software package (Origin 7.5 Mircocal, Northampton, Mass., USA) was used to generate all graphs and to perform the IC50 calculations.
As usually defined, the IC50 is the point on the concentration scale where inhibition reaches its midpoint. A higher IC50 goes with weaker potency in that assay. `Cc1ccnc([C@]2(CN)CC[C@@H](N3CCn4c(nnc4C(F)(F)F)C3)CC2)c1`: inhibition was half-maximal at 250 nM (IC50). The figure for `Cc1n[nH]c(C)c1CCn1cc(-c2ccc(=O)n([C@H]3CC[C@](CN)(c4cccc(Cl)c4)CC3)n2)nn1` is 850 nM. The value for `CC1CC(=O)N([C@]2(CN)CC[C@@H](N3CCn4c(nnc4C(F)(F)F)C3)CC2)C1` (stereo partly drawn) was 850 nM. The value for `CCOC(=O)N1CCC(N2CC(=O)N([C@H]3CC[C@](CN)(c4cccc(Cl)c4)CC3)CC2=O)CC1` was 100 nM; that for `NCC1(c2cccc(Cl)c2)CCC(Oc2ccc(Br)cn2)CC1` (stereo not drawn) was 200 nM.

For the compound `NC[C@]1(c2cccc(Cl)c2)CC[C@H](n2nc(-c3cnn(Cc4ccccc4)c3)ccc2=O)CC1`, it took 500 nM to reach half-maximal inhibition (IC50).

In turn, `Cn1ccc2cc(C(=O)N[C@H]3CC[C@](CN)(c4cccc(Cl)c4)CC3)ccc21` gave a half-maximal inhibitory concentration (IC50) of 50 nM. This IC50 is about 10-fold lower than that of the compound before. The figure for `NC[C@]1(c2cccc(Cl)c2)CC[C@H](N2C(=O)OC[C@H]2Cc2ccccc2)CC1` is 200 nM; for `Cc1nc(=O)c2c([nH]1)CCC(CN)(c1cccc(Cl)c1)C2` (stereo not drawn) it is 11600 nM. The figure for `CS(=O)(=O)c1ccc(CN[C@H]2CC[C@](CN)(c3cccc(Cl)c3)CC2)cc1` is 400 nM; for `NC[C@]1(c2cccc(Cl)c2)CC[C@H](N(Cc2ccn[nH]2)C(=O)c2cccnc2)CC1` it is 450 nM; for `Cc1cccc(C2(CN)CCC(N3CCn4c(nnc4C(F)(F)F)C3)C2)c1` (stereo not drawn) it is 5050 nM.

For the origin of these results see patent US20130012485A1, “ORGANIC COMPOUNDS” (priority 2006, published 2013).
